In PubChem BioAssay (NCI):
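Step 1: Grow cells in 96-well plates. Step 2: Expose to compound for 48 hours at 5 concentrations. Step 3: Interpolate endpoints linearly; if unreached, use highest concentration. The concentration for 50% growth inhibition is given as GI50. TGI: concentration producing complete growth inhibition.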

Legend:
Test in all cases: inhibition of tumour cell growth, NCI panel, 48 h
[1] = system: 786-0 renal
[2] = system: A549 NSCLC
[3] = system: ACHN renal
[4] = system: BT-549 breast
[5] = system: CAKI-1 renal
[6] = system: CCRF-CEM leukemia
[7] = system: COLO 205 colon
[8] = system: DU-145 prostate
[9] = system: EKVX NSCLC
[10] = system: HCC-2998 colon
[11] = system: HCT-116 colon
[12] = system: HCT-15 colon
[13] = system: HL-60(TB) leukemia
[14] = system: HOP-62 NSCLC
[15] = system: HS 578T breast
[16] = system: HT29 colon
[17] = system: IGROV1 ovarian
[18] = system: K-562 leukemia
[19] = system: KM12 colon
[20] = system: LOX IMVI melanoma
[21] = system: M14 melanoma
[22] = system: MALME-3M melanoma
[23] = system: MCF7 breast
[24] = system: MDA-MB-231 breast
[25] = system: MDA-MB-435
[26] = system: MDA-MB-468 breast
[27] = system: MOLT-4 leukemia
[28] = system: NCI-H226 lung
[29] = system: NCI-H23 lung
[30] = system: NCI-H460 lung
[31] = system: NCI-H522 lung
[32] = system: NCI/ADR-RES ovarian
[33] = system: OVCAR-3 ovarian
[34] = system: OVCAR-4 ovarian
[35] = system: OVCAR-5 ovarian
[36] = system: OVCAR-8 ovarian
[37] = system: PC-3 prostate
[38] = system: RPMI-8226 leukemia
[39] = system: RXF 393 renal
[40] = system: SF-268 CNS
[41] = system: SF-295 CNS
[42] = system: SF-539 CNS
[43] = system: SK-MEL-2 melanoma
[44] = system: SK-MEL-28 melanoma
[45] = system: SK-MEL-5 melanoma
[46] = system: SK-OV-3 ovarian
[47] = system: SN12C renal
[48] = system: SNB-19 CNS
[49] = system: SNB-75 CNS
[50] = system: SR leukemia
[51] = system: SW-620 colon
[52] = system: T-47D breast
[53] = system: TK-10 renal
[54] = system: U251 CNS
[55] = system: UACC-257 melanoma
[56] = system: UACC-62 melanoma
[57] = system: UO-31 renal
[58] = system: A498 renal
[59] = system: HOP-92 NSCLC

SMILES: N#Cc1cc(-c2ccc3ncnc(N4CCc5cc(F)c(Cl)cc54)c3c2)cnc1N
- GI50 [1]: 0.435 µM
- TGI [1]: 21.9 µM
- GI50 [2]: 1.88 µM
- TGI [2]: > 100 µM
- GI50 [3]: 0.85 µM
- TGI [3]: > 100 µM
- GI50 [4]: 1.23 µM
- TGI [4]: 32.6 µM
- GI50 [5]: 0.786 µM
- TGI [5]: > 100 µM
- GI50 [6]: 0.575 µM
- TGI [6]: > 100 µM
- GI50 [7]: 1.9 µM
- TGI [7]: > 100 µM
- GI50 [8]: 1.49 µM
- TGI [8]: > 100 µM
- GI50 [9]: 0.94 µM
- TGI [9]: > 100 µM
- GI50 [10]: 2.07 µM
- TGI [10]: > 100 µM
- GI50 [11]: 2.11 µM
- TGI [11]: 10.4 µM
- GI50 [12]: 1.68 µM
- TGI [12]: > 100 µM
- GI50 [13]: 0.422 µM
- TGI [13]: > 100 µM
- GI50 [14]: 3.75 µM
- TGI [14]: > 100 µM
- GI50 [15]: 0.633 µM
- TGI [15]: 7.71 µM
- GI50 [16]: 2.65 µM
- TGI [16]: > 100 µM
- GI50 [17]: 0.365 µM
- TGI [17]: 3.01 µM
- GI50 [18]: 3.23 µM
- TGI [18]: > 100 µM
- GI50 [19]: 15.9 µM
- TGI [19]: > 100 µM
- GI50 [20]: 1.6 µM
- TGI [20]: 16.9 µM
- GI50 [21]: 3.09 µM
- TGI [21]: > 100 µM
- GI50 [22]: 2.93 µM
- TGI [22]: 45.5 µM
- GI50 [23]: 0.532 µM
- TGI [23]: 4.05 µM
- GI50 [24]: 2.45 µM
- TGI [24]: 9.48 µM
- GI50 [25]: 4.15 µM
- TGI [25]: 29.8 µM
- GI50 [26]: 0.227 µM
- TGI [26]: 0.88 µM
- GI50 [27]: 1.63 µM
- TGI [27]: 11.4 µM
- GI50 [28]: 1.38 µM
- TGI [28]: > 100 µM
- GI50 [29]: 3.34 µM
- TGI [29]: > 100 µM
- GI50 [30]: 1.9 µM
- TGI [30]: 6.52 µM
- GI50 [31]: 3.34 µM
- TGI [31]: > 100 µM
- GI50 [32]: 2.41 µM
- TGI [32]: > 100 µM
- GI50 [33]: 1.47 µM
- TGI [33]: > 100 µM
- GI50 [34]: 3.7 µM
- TGI [34]: > 100 µM
- GI50 [35]: 5.21 µM
- TGI [35]: > 100 µM
- GI50 [36]: 2.34 µM
- TGI [36]: > 100 µM
- GI50 [37]: 1.75 µM
- TGI [37]: > 100 µM
- GI50 [38]: 0.992 µM
- TGI [38]: > 100 µM
- GI50 [39]: 0.316 µM
- TGI [39]: 2.94 µM
- GI50 [40]: 2.31 µM
- TGI [40]: > 100 µM
- GI50 [41]: 3.23 µM
- TGI [41]: > 100 µM
- GI50 [42]: 1.87 µM
- TGI [42]: > 100 µM
- GI50 [43]: 17.1 µM
- TGI [43]: > 100 µM
- GI50 [44]: 2.81 µM
- TGI [44]: > 100 µM
- GI50 [45]: 3.03 µM
- TGI [45]: > 100 µM
- GI50 [46]: 2.92 µM
- TGI [46]: > 100 µM
- GI50 [47]: 1.05 µM
- TGI [47]: 11.2 µM
- GI50 [48]: 3.41 µM
- TGI [48]: > 100 µM
- GI50 [49]: 0.838 µM
- TGI [49]: > 100 µM
- GI50 [50]: 1.01 µM
- TGI [50]: 10 µM
- GI50 [51]: 2.62 µM
- TGI [51]: > 100 µM
- GI50 [52]: 1.49 µM
- TGI [52]: > 100 µM
- GI50 [53]: 0.993 µM
- TGI [53]: > 100 µM
- GI50 [54]: 2.71 µM
- TGI [54]: > 100 µM
- GI50 [55]: 4.45 µM
- TGI [55]: > 100 µM
- GI50 [56]: 3.39 µM
- TGI [56]: > 100 µM
- GI50 [57]: 0.278 µM
- TGI [57]: > 100 µM

SMILES: COc1ccc2[nH]c(O)c(N=NC(=O)COc3ccc(NC(=O)Nc4ccc(Cl)c(Cl)c4)cc3)c2c1
- GI50 [1]: 1.07 µM
- TGI [1]: 2.75 µM
- GI50 [58]: 1.84 µM
- TGI [58]: 5.4 µM
- GI50 [3]: 2.18 µM
- TGI [3]: 13.2 µM
- GI50 [4]: 2.01 µM
- TGI [4]: 4.47 µM
- GI50 [5]: 2.39 µM
- TGI [5]: 11 µM
- GI50 [6]: 0.822 µM
- TGI [6]: 19.1 µM
- GI50 [7]: 1.12 µM
- TGI [7]: 4.21 µM
- GI50 [8]: 0.493 µM
- TGI [8]: 1.91 µM
- GI50 [9]: 3.89 µM
- TGI [9]: 25.9 µM
- GI50 [10]: 2.97 µM
- TGI [10]: 15.6 µM
- GI50 [12]: 31.6 µM
- TGI [12]: > 100 µM
- GI50 [13]: 6.71 µM
- TGI [13]: 25.1 µM
- GI50 [14]: 2.88 µM
- TGI [14]: 14.1 µM
- GI50 [59]: 0.615 µM
- TGI [59]: 2.63 µM
- GI50 [15]: 1.87 µM
- TGI [15]: 5.52 µM
- GI50 [17]: 1.91 µM
- TGI [17]: 6.35 µM
- GI50 [18]: 0.575 µM
- TGI [18]: 19.7 µM
- GI50 [19]: 1.29 µM
- TGI [19]: 7.64 µM
- GI50 [20]: 0.309 µM
- TGI [20]: 1.03 µM
- GI50 [21]: 0.992 µM
- TGI [21]: 4.57 µM
- GI50 [22]: 0.452 µM
- TGI [22]: 1.68 µM
- GI50 [23]: 0.488 µM
- TGI [23]: 6.05 µM
- GI50 [24]: 1.46 µM
- TGI [24]: 3.55 µM
- GI50 [25]: 0.605 µM
- TGI [25]: 2.36 µM
- GI50 [26]: 1.17 µM
- TGI [26]: 3.01 µM
- GI50 [27]: 1.61 µM
- TGI [27]: 17.9 µM
- GI50 [28]: 1.07 µM
- TGI [28]: 3.45 µM
- GI50 [30]: 0.437 µM
- TGI [30]: 1.49 µM
- GI50 [32]: 25.4 µM
- TGI [32]: > 100 µM
- GI50 [33]: 0.696 µM
- TGI [33]: 2.28 µM
- GI50 [34]: 0.691 µM
- TGI [34]: 2.74 µM
- GI50 [35]: 1.53 µM
- TGI [35]: 6 µM
- GI50 [36]: 2.33 µM
- TGI [36]: 15.7 µM
- GI50 [37]: 1.42 µM
- TGI [37]: 4.72 µM
- GI50 [38]: 2.71 µM
- TGI [38]: > 100 µM
- GI50 [39]: 1.05 µM
- TGI [39]: 2.9 µM
- GI50 [40]: 1.64 µM
- TGI [40]: 10.2 µM
- GI50 [41]: 1.91 µM
- TGI [41]: 5.22 µM
- GI50 [42]: 0.767 µM
- TGI [42]: 2.09 µM
- GI50 [43]: 10.4 µM
- TGI [43]: 23 µM
- GI50 [44]: 1.63 µM
- TGI [44]: 4.05 µM
- GI50 [45]: 1.99 µM
- TGI [45]: 5.36 µM
- GI50 [46]: 5.1 µM
- TGI [46]: 17.5 µM
- GI50 [47]: 1.1 µM
- TGI [47]: 3.45 µM
- GI50 [48]: 3.33 µM
- TGI [48]: 14.2 µM
- GI50 [49]: 1.61 µM
- TGI [49]: 3.98 µM
- GI50 [50]: 1.04 µM
- TGI [50]: 18.4 µM
- GI50 [51]: 0.441 µM
- TGI [51]: 1.37 µM
- GI50 [52]: 1.46 µM
- TGI [52]: 3.26 µM
- GI50 [53]: 3.79 µM
- TGI [53]: 14.6 µM
- GI50 [54]: 3.37 µM
- TGI [54]: 14.9 µM
- GI50 [55]: 3.36 µM
- TGI [55]: 15.9 µM
- GI50 [56]: 2.86 µM
- TGI [56]: 12.7 µM
- GI50 [57]: 31.3 µM
- TGI [57]: > 100 µM
